± gives the expanded uncertainty stated by the source.
Conditions: Fluid (supercritical or subcritical phases), vibrating plate method

[Ar] [argon]
Conditions	mass density [kg/m3]	viscosity [mPa·s]
323.16 K, 7006 kPa	107.17 ± 1	0.02744 ± 0.00086
323.16 K, 13877 kPa	213.45 ± 1.2	0.02979 ± 0.00088
323.16 K, 20899 kPa	316.3 ± 1.3	0.03257 ± 0.00094
323.16 K, 27679 kPa	408.2 ± 1.4	0.0352 ± 0.001
323.16 K, 34459 kPa	489.8 ± 1.6	0.0382 ± 0.0011
323.16 K, 41249 kPa	561.2 ± 1.8	0.0415 ± 0.0012
323.16 K, 48119 kPa	624.2 ± 1.9	0.0448 ± 0.0013
323.16 K, 54885 kPa	678.5 ± 1.9	0.0481 ± 0.0014
323.16 K, 61690 kPa	726.2 ± 2.1	0.0512 ± 0.0015
323.16 K, 68312 kPa	767.5 ± 2.2	0.0542 ± 0.0016
348.15 K, 6978 kPa	97.69 ± 0.93	0.02904 ± 0.00091
348.15 K, 17496 kPa	241.15 ± 1.1	0.03308 ± 0.00097
348.15 K, 27653 kPa	368.7 ± 1.4	0.0358 ± 0.001
348.15 K, 34469 kPa	444.9 ± 1.5	0.0381 ± 0.0011
348.15 K, 41288 kPa	513.1 ± 1.6	0.0407 ± 0.0012
348.15 K, 48154 kPa	574.3 ± 1.8	0.0434 ± 0.0012
348.15 K, 54879 kPa	627.8 ± 1.9	0.0463 ± 0.0013
348.15 K, 61690 kPa	676.3 ± 1.9	0.049 ± 0.0014
348.15 K, 68529 kPa	719.8 ± 2	0.051 ± 0.0015
398.11 K, 7360 kPa	88.47 ± 0.8	0.0292 ± 0.00091
398.11 K, 13876 kPa	165.12 ± 0.87	0.03138 ± 0.00092
398.11 K, 27719 kPa	316.2 ± 1.1	0.0362 ± 0.001
398.11 K, 34448 kPa	382.2 ± 1.3	0.0386 ± 0.0011
398.11 K, 41294 kPa	443.6 ± 1.4	0.0417 ± 0.0012
398.11 K, 48140 kPa	499.6 ± 1.6	0.0441 ± 0.0013
398.11 K, 54949 kPa	550.4 ± 1.6	0.0466 ± 0.0013
398.11 K, 61785 kPa	596.9 ± 1.8	0.0491 ± 0.0014
423.11 K, 7008 kPa	79.27 ± 0.74	0.03113 ± 0.001
423.11 K, 7272 kPa	82.13 ± 0.75	0.02996 ± 0.00096
423.11 K, 14124 kPa	157.84 ± 0.84	0.03214 ± 0.001
423.11 K, 14381 kPa	160.69 ± 0.85	0.03398 ± 0.001
423.11 K, 21056 kPa	231.04 ± 0.95	0.0342 ± 0.001
423.11 K, 21065 kPa	231.06 ± 0.95	0.0361 ± 0.001
423.11 K, 27779 kPa	297.59 ± 1.1	0.0381 ± 0.0011
423.11 K, 27786 kPa	297.92 ± 1.1	0.0359 ± 0.001
423.11 K, 34529 kPa	359.8 ± 1.4	0.0403 ± 0.0021
423.11 K, 34605 kPa	361 ± 1.4	0.0376 ± 0.0021
423.11 K, 41249 kPa	417.7 ± 1.3	0.0398 ± 0.0011
423.11 K, 48189 kPa	472.3 ± 1.5	0.0418 ± 0.0012
423.11 K, 48197 kPa	472.3 ± 1.5	0.0421 ± 0.0012
423.11 K, 55018 kPa	521.5 ± 1.6	0.0444 ± 0.0013
423.11 K, 61834 kPa	566.5 ± 1.6	0.0467 ± 0.0014
423.11 K, 68620 kPa	608 ± 1.7	0.0493 ± 0.0014

From the NIST ThermoML archive (doi:10.1007/s10765-006-0114-6)
